Reference: ChEMBL document CHEMBL1201862, “PubChem BioAssay data set” (2004)
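1) Cells in 96-well plates. 2) Compound, 48 h, 5 concentrations. 3) Linear interpolation between surrounding doses. 4) Unreached endpoint = highest concentration. GI50 marks 50% less growth.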 Activity calls are given as the source filed them. No stated cut-off is given here; in the data, active = GI50 up to about 1.1 µM and inactive = higher.

Assays:
Test in all cases: NCI tumour cell line growth inhibition, 48 h
[1] = system: 786-0
[2] = system: ACHN
[3] = system: CAKI-1
[4] = system: EKVX
[5] = system: HCT-116
[6] = system: HT-29
[7] = system: IGROV-1
[8] = system: KM12
[9] = system: NCI-H23
[10] = system: OVCAR-8
[11] = system: RPMI-8226
[12] = system: SF-295
[13] = system: SK-MEL-28
[14] = system: SK-MEL-5
[15] = system: SN12C
[16] = system: SNB-19
[17] = system: SNB-75
[18] = system: U-251
[19] = system: UACC-62
[20] = system: UO-31

Measured: GI50

CC(=O)n1nnc2ccc([N+](=O)[O-])cc21
inactive: [1] > 100 µM | [2] > 100 µM | [3] > 100 µM | [4] > 100 µM | [5] > 100 µM | [6] > 100 µM | [7] > 100 µM | [8] > 100 µM | [9] > 100 µM | [10] > 100 µM | [11] > 100 µM | [12] > 100 µM | [13] > 100 µM | [14] > 100 µM | [15] > 100 µM | [16] > 100 µM | [17] > 100 µM | [18] > 100 µM | [19] > 100 µM | [20] > 100 µM

CCOC(=O)/C=C1\Oc2ccccc2C1(C)O (stereo not drawn)
inactive: [1] > 100 µM | [2] > 100 µM | [3] > 100 µM | [4] > 100 µM | [5] > 100 µM | [6] > 100 µM | [7] > 100 µM | [8] > 100 µM | [9] > 100 µM | [10] > 100 µM | [11] > 100 µM | [12] > 100 µM | [13] > 100 µM | [14] > 100 µM | [15] > 100 µM | [16] > 100 µM | [17] > 100 µM | [18] > 100 µM | [19] > 100 µM | [20] > 100 µM

CC(C)=C[C@@H]1C[C@H](C)[C@H]2CC[C@H](C)[C@H]3C(=O)C(O)=C(C)C(=O)[C@]123
inactive: [1] > 100 µM | [2] > 100 µM | [3] > 100 µM | [4] > 100 µM | [5] 88.5 µM | [6] > 100 µM | [7] > 100 µM | [8] > 100 µM | [9] > 100 µM | [10] > 100 µM | [11] > 100 µM | [12] > 100 µM | [13] > 100 µM | [14] > 100 µM | [15] > 100 µM | [16] > 100 µM | [17] > 100 µM | [18] > 100 µM | [19] > 100 µM | [20] > 100 µM

C=C1N(C)c2ccc(S(=O)(=O)c3ccc4c(c3)C(C)(C)C(=C)N4C)cc2C1(C)C
inactive: [1] 58.5 µM | [2] 77.8 µM | [3] 62.4 µM | [4] 30.9 µM | [5] 34.5 µM | [6] 47 µM | [7] 27.3 µM | [8] 45.5 µM | [9] 27.4 µM | [10] 27.1 µM | [11] 9.08 µM | [12] 22.8 µM | [13] > 100 µM | [14] 17.5 µM | [15] 42.2 µM | [16] 39.2 µM | [17] 16.3 µM | [18] 31.5 µM | [19] 29.1 µM | [20] 51.6 µM

CC(=O)C1CC(C)=CCC12C(=O)Nc1ccccc12 (stereo not drawn)
inactive: [1] > 100 µM | [2] > 100 µM | [3] > 100 µM | [4] > 100 µM | [5] > 100 µM | [6] > 100 µM | [7] > 100 µM | [8] > 100 µM | [9] > 100 µM | [10] > 100 µM | [11] > 100 µM | [12] > 100 µM | [13] > 100 µM | [14] > 100 µM | [15] > 100 µM | [16] > 100 µM | [17] > 100 µM | [18] > 100 µM | [19] 68.1 µM

NC(=O)c1ccccc1NC(=O)C(=O)Nc1n[nH]c(N)n1
inactive: [1] > 100 µM | [2] > 100 µM | [3] > 100 µM | [4] > 100 µM | [5] > 100 µM | [6] > 100 µM | [7] > 100 µM | [8] > 100 µM | [9] > 100 µM | [10] > 100 µM | [11] > 100 µM | [12] > 100 µM | [14] > 100 µM | [15] > 100 µM | [16] > 100 µM | [17] > 100 µM | [18] > 100 µM | [19] > 100 µM | [20] > 100 µM

CC1=C(C(=O)Nc2ccccc2C)C(c2ccc(Cl)c(Cl)c2)C(C(=O)Nc2ccccc2C)=C(C)N1
inactive: [1] 24.7 µM | [2] 27.3 µM | [3] 26.7 µM | [4] 34.1 µM | [5] 16 µM | [6] 20 µM | [7] 19 µM | [8] 26.2 µM | [9] 19.8 µM | [10] 37.2 µM | [11] 16.1 µM | [12] 21.6 µM | [13] 25.8 µM | [14] 17.5 µM | [15] 18.7 µM | [16] 44.2 µM | [17] 36.5 µM | [18] 19.3 µM | [19] 17.4 µM | [20] 25.7 µM

CC(C)c1nccn1Cc1ccc(Cl)cc1Cl
inactive: [1] 38 µM | [2] 83 µM | [3] 53.7 µM | [4] 25.5 µM | [5] 16.3 µM | [6] 28.8 µM | [7] > 100 µM | [8] 30.5 µM | [9] 27.4 µM | [10] 46.2 µM | [11] 16 µM | [12] 14.5 µM | [13] > 100 µM | [14] 12 µM | [15] 26.5 µM | [16] 48.5 µM | [17] 36.5 µM | [18] 41.5 µM | [19] 43.8 µM | [20] 24.9 µM

COC(=O)/C=c1\s/c(=C\C(=O)OC)c2ccccc12
inactive: [1] > 100 µM | [2] > 100 µM | [3] > 100 µM | [4] > 100 µM | [5] > 100 µM | [6] > 100 µM | [7] > 100 µM | [8] 11.7 µM | [9] > 100 µM | [10] > 100 µM | [11] > 100 µM | [12] > 100 µM | [13] > 100 µM | [14] > 100 µM | [15] > 100 µM | [16] > 100 µM | [17] 27.9 µM | [18] > 100 µM | [19] > 100 µM | [20] 89.1 µM

CCCCCC[N+](C)(C)Cc1ccc(C[N+](C)(C)CCCCCC)cc1
inactive: [1] 3.52 µM | [2] 3.56 µM | [3] 3.19 µM | [4] 3.94 µM | [5] 3.71 µM | [6] 3.8 µM | [7] 2.54 µM | [8] 2.25 µM | [9] 1.82 µM | [10] 3.1 µM | [11] 4.23 µM | [12] 2.79 µM | [13] 4.95 µM | [14] 6.64 µM | [15] 3.49 µM | [16] 5.2 µM | [17] 2.8 µM | [18] 2.57 µM | [19] 8.32 µM | [20] 8.43 µM
